{"source": "patent US20200163938A1", "about": "“PHARMACEUTICAL COMPOSITION COMPRISING IRON CHELATOR EXHIBITING ANTITUMOR ACTIVITY, ANTIBACTERIAL ACTIVITY AND/OR ANTIVIRUS ACTIVITY, AND HAVING REDUCED SIDE EFFECTS” (priority 2017, published 2020)", "key": {"[1]": {"tested_on": "P. aeruginosa (ATCC9027; Pseudomonas aeruginosa)", "test": "Minimum growth inhibition concentration (MIC)", "type": "cell-based", "details": "24 hours; for MIC: Pseudomonas aeruginosa, ATCC9027", "description": "(§1) The dilution series of the chelating agent of each test group was prepared according to a standard method, microbes were inoculated, and then 24 hours later, the microbial growth was confirmed, thereby determining the minimum growth inhibition concentration of the chelating agent of each test group. Microbes used herein were S. aureus (ATCC6538; Staphylococcus aureus), P. aeruginosa (ATCC9027; Pseudomonas aeruginosa) and C. albicans (ATCC10231; Candida albicans). Drugs used herein were oxacillin, vancomycin and deferasirox as positive controls."}, "[2]": {"tested_on": "S. aureus (ATCC6538; Staphylococcus aureus)", "test": "Minimum growth inhibition concentration (MIC)", "type": "cell-based", "details": "for MIC: Staphylococcus aureus, ATCC6538; for MIC / MIC S. aureus: 24 hours", "description": "as §1"}, "[3]": {"tested_on": "C. albicans (ATCC10231; Candida albicans)", "test": "Minimum growth inhibition concentration (MIC)", "type": "cell-based", "description": "as §1"}, "[4]": {"tested_on": "Human lung cancer cell line (A549) subcutaneous tumors", "test": "In vivo antitumor effects, A549 subcutaneous tumors in nude mice", "description": "Antitumor effects were confirmed using animal models. Specifically, nude mice (BALB/c nu/nu, 6 weeks old: Clea Japan Inc.) were provided. Human lung cancer cell line (A549) was adjusted at 3×10^6/mouse, and then mixed with Matrigel (BD Biosciences) at 1:1. The thus obtained mixture was administered to mice, thereby forming subcutaneous tumors. At 1 week after the formation of subcutaneous tumors, mice were divided into a negative control group (saline: 4 mice), a test group 9 administration group (test group 9: 3 mice), and a positive control group (deferasirox: 3 mice), and then subjected to oral administration. The dosage of deferasirox was 20 mg/kg/day (5 times/week administration) corresponding to that specified for humans in the package insert. Test group 9 was administered in the same dosage as that of deferasirox. Results were as depicted in FIGS. 4A and 4B."}, "[5]": {"type": "in vivo", "design": "NEFA: unit not given here", "details": "for Body weight: rats", "description": "To a negative control group (saline administration; n=6), the same amount of saline was administered. On day 14 after administration, determining life or death, measurement of body weight, physical items (respiration, body temperature, behavior, etc.) were observed. Moreover, blood samples were taken from each group, and the right kidneys and the livers were removed. Results were as depicted in FIG. 5A to 5C and Tables 4 to 9."}, "[6]": {"tested_on": "A. actinomycetemcomitans AaY4 (ATCC)", "test": "Antibacterial activity, turbidity and ATP assay", "type": "cell-based, Aggregatibacter actinomycetemcomitans", "details": "anaerobic culture 37° C., 18 hours; FIGS. 7A, 7B", "description": "A bacterial strain of one of periodontopathic bacteria, A. actinomycetemcomitans, used herein was AaY4 (ATCC). With the use of a liquid medium prepared by adding a yeast extract, sodium bicarbonate and the chelating agent of each test group to TSB medium, anaerobic culture (Anaeropack-anaerobic) was performed at 37° C. for 18 hours. Turbidity was measured using absorbance (OD570 or 595 nm), and cell activity was measured using an ATP assay kit. Results were as depicted in FIGS. 7A and 7B."}, "S. mutans (ATCC25175)": {"tested_on": "S. mutans (ATCC25175)", "test": "Antibacterial activity, turbidity and ATP assay", "type": "cell-based, Streptococcus mutans", "details": "aerobic culture 37° C., 18 hours; FIGS. 6A, 6B", "description": "First, the antibacterial activity of a dental caries-causing bacterium, S. mutans (ATCC25175) was examined. With the use of a liquid medium prepared by adding a yeast extract and the chelating agent of each test group to TSB medium, aerobic culture was performed at 37° C. for 18 hours, and then turbidity was found from optical density (OD570 or 595 nm). Cell activity was measured using an ATP assay kit (Kikkoman Corporation). Results were as depicted in FIGS. 6A and 6B."}, "[7]": {"details": "rat blood, oral 200 mg/kg, day 14"}, "[8]": {"details": "rat blood, oral 1000 mg/kg, day 14"}, "[9]": {"details": "rat blood, oral 1000 mg/kg, day 14, 1000 mg/kg"}}, "note": "Values joined by “and” are separate entries in the source; they are usually repeats but may differ in a detail not shown here. Identical values can stand only once. Like-named read-outs stand apart in the source and are kept apart here.", "data": [{"smiles": "CN[C@H](CC(C)C)C(=O)N[C@H]1C(=O)N[C@@H](CC(N)=O)C(=O)N[C@H]2C(=O)N[C@H]3C(=O)N[C@H](C(=O)N[C@H](C(=O)O)c4cc(O)cc(O)c4-c4cc3ccc4O)[C@H](O)c3ccc(c(Cl)c3)Oc3cc2cc(c3O[C@@H]2O[C@H](CO)[C@@H](O)[C@H](O)[C@H]2O[C@H]2C[C@](C)(N)[C@H](O)[C@H](C)O2)Oc2ccc(cc2Cl)[C@H]1O", "note": "[Vancomycin, vancomycin, reference compound]", "values": [{"measurement": "MIC", "setting": "[1]", "result": "> 50", "unit": "µg/mL"}, {"measurement": "MIC", "setting": "[2]", "result": 1.6, "unit": "µg/mL"}]}, {"smiles": "Cl.O=C(O)[C@H](Cc1c[nH]cn1)NCc1ccc(O)c(O)c1", "note": "[Test group 8]", "values": [{"measurement": "MIC C. albicans", "setting": "[3]; 24 hours", "result": ">800", "unit": "µg/mL"}, {"measurement": "MIC P. aeruginosa", "setting": "[1]", "result": ">800", "unit": "µg/mL"}, {"measurement": "MIC S. aureus", "setting": "[2]", "result": 800, "unit": "µg/mL"}, {"measurement": "antimicrobial effects on S. aureus (in words)", "setting": "[2]; from Table 10", "result": "antimicrobial effects"}]}, {"smiles": "Cl.O=C(O)c1cc(CN[C@@H](Cc2c[nH]cn2)C(=O)O)ccc1O", "note": "[Test group 9]", "values": [{"measurement": "in vivo antitumor effects", "setting": "[4]; A549 subcutaneous tumors, nude mice, oral 20 mg/kg/day (5 times/week), FIG. 4A", "result": "antitumor effects were exhibited to an extent almost equivalent to that in the positive control group"}, {"measurement": "body weight change", "setting": "[4]; mouse, in vivo, po, 20 mg/kg/day", "result": "no significant change was observed in body weight"}, {"measurement": "death during the experiment", "setting": "[4]; nude mice, oral 20 mg/kg/day (5 times/week)", "result": "no mice died during the experiment"}, {"measurement": "MIC C. albicans", "setting": "[3]; 24 hours", "result": ">500", "unit": "µg/mL"}, {"measurement": "MIC P. aeruginosa", "setting": "[1]", "result": ">500", "unit": "µg/mL"}, {"measurement": "MIC S. aureus", "setting": "[2]", "result": ">500", "unit": "µg/mL"}, {"measurement": "ALP", "setting": "[5]; [7]", "result": 695, "unit": "IU/L"}, {"measurement": "ALT", "setting": "[5]; [7]", "result": 24, "unit": "IU/L"}, {"measurement": "AST", "setting": "[5]; [7]", "result": 54, "unit": "IU/L"}, {"measurement": "BUN", "setting": "[5]; [7]", "result": 22.8, "unit": "mg/dL"}, {"measurement": "CRE", "setting": "[5]; [7]", "result": 0.37, "unit": "mg/dL"}, {"measurement": "Ca", "setting": "[5]; [7]", "result": 11.1, "unit": "mg/dL"}, {"measurement": "GLU", "setting": "[5]; [7]", "result": 214, "unit": "mg/dL"}, {"measurement": "K", "setting": "[5]; [7]", "result": 4.7, "unit": "mEQ/L"}, {"measurement": "LD", "setting": "[5]; [7]", "result": 49, "unit": "IU/L"}, {"measurement": "NEFA", "setting": "[5]; [7]", "result": 59}, {"measurement": "Na", "setting": "[5]; [7]", "result": 146, "unit": "mEQ/L"}, {"measurement": "T-Bil", "setting": "[5]; [7]", "result": 0.05, "unit": "mg/dL"}, {"measurement": "TP", "setting": "[5]; [7]", "result": 5.5, "unit": "g/dL"}, {"measurement": "CRE", "setting": "[5]; [8]", "result": 0.36, "unit": "mg/dL"}, {"measurement": "T-Bil", "setting": "[5]; [8]", "result": 0.06, "unit": "mg/dL"}, {"measurement": "ALP", "setting": "[5]; [9]", "result": "563 IU/L and 502 IU/L"}, {"measurement": "ALT", "setting": "[5]; [9]", "result": "24 IU/L and 25 IU/L"}, {"measurement": "AST", "setting": "[5]; [9]", "result": "59 IU/L and 58 IU/L"}, {"measurement": "BUN", "setting": "[5]; [9]", "result": "22.5 mg/dL and 24.4 mg/dL"}, {"measurement": "Ca", "setting": "[5]; [9]", "result": "10.0 mg/dL and 11.2 mg/dL"}, {"measurement": "GLU", "setting": "[5]; [9]", "result": "195 mg/dL and 301 mg/dL"}, {"measurement": "K", "setting": "[5]; [9]", "result": "3.6 mEQ/L and 4.8 mEQ/L"}, {"measurement": "LD", "setting": "[5]; [9]", "result": "78 IU/L and 70 IU/L"}, {"measurement": "Na", "setting": "[5]; [9]", "result": "143 mEQ/L and 144 mEQ/L"}, {"measurement": "TP", "setting": "[5]; [9]", "result": "5.4 g/dL and 5.9 g/dL"}, {"measurement": "Body weight", "setting": "[5]; oral 200 mg/kg", "result": 190.97, "unit": "g"}, {"measurement": "Body weight", "setting": "[5]; oral 1000 mg/kg, 1000 mg/kg", "result": "177.11 g and 183.15 g"}]}, {"smiles": "Cl.OCC1OC(O)C(NCc2ccc(O)c(O)c2)C(O)C1O", "note": "(centres unmarked) [Test group 5]", "values": [{"measurement": "MIC C. albicans", "setting": "[3]; 24 hours", "result": 800, "unit": "µg/mL"}, {"measurement": "antimicrobial effects on C. albicans (in words)", "setting": "[3]; from Table 10", "result": "exhibited antimicrobial effects"}, {"measurement": "MIC P. aeruginosa", "setting": "[1]", "result": ">800", "unit": "µg/mL"}, {"measurement": "MIC S. aureus", "setting": "[2]", "result": 800, "unit": "µg/mL"}, {"measurement": "antimicrobial effects on A. actinomycetemcomitans (turbidity, ATP activity)", "setting": "[6]", "result": "strong antimicrobial effects"}, {"measurement": "antimicrobial effects on S. mutans (turbidity, ATP activity)", "setting": "S. mutans (ATCC25175)", "result": "strong antimicrobial effects"}]}, {"smiles": "Cc1onc(-c2ccccc2)c1C(=O)N[C@@H]1C(=O)N2[C@@H]1SC(C)(C)[C@@H]2C(=O)O", "note": "[Oxacillin, oxacillin, reference compound]", "values": [{"measurement": "MIC", "setting": "[1]", "result": 1020, "unit": "µg/mL"}, {"measurement": "MIC", "setting": "[2]", "result": 0.25, "unit": "µg/mL"}]}, {"smiles": "O=C(O)c1ccc(-n2nc(-c3ccccc3O)nc2-c2ccccc2O)cc1", "note": "[Deferasirox, deferasirox, reference compound]", "values": [{"measurement": "MIC", "setting": "[3]; Candida albicans, ATCC10231, 24 hours", "result": "> 250", "unit": "µg/mL"}, {"measurement": "MIC", "setting": "[1]", "result": "> 250", "unit": "µg/mL"}, {"measurement": "MIC", "setting": "[2]", "result": 250, "unit": "µg/mL"}]}, {"smiles": "Cl.O=C(O)c1cc(CNC2C(O)OC(CO)C(O)C2O)ccc1O", "note": "(centres unmarked) [Test group 7]", "values": [{"measurement": "MIC C. albicans", "setting": "[3]; 24 hours", "result": ">800", "unit": "µg/mL"}, {"measurement": "MIC P. aeruginosa", "setting": "[1]", "result": ">800", "unit": "µg/mL"}, {"measurement": "MIC S. aureus", "setting": "[2]", "result": ">800", "unit": "µg/mL"}]}]}
